Among the data in publication PMC3146629 (2011) are Kd values, retold here.

SMILES strings stand for the structures.

The target of this assay is HSPA8 (Hsc70) (Bos taurus, UniProt P19120). Put plainly: […]-1H TROSY NMR titration. The format is binding.
Chain of HSPA8 (Hsc70) (P19120 1-383): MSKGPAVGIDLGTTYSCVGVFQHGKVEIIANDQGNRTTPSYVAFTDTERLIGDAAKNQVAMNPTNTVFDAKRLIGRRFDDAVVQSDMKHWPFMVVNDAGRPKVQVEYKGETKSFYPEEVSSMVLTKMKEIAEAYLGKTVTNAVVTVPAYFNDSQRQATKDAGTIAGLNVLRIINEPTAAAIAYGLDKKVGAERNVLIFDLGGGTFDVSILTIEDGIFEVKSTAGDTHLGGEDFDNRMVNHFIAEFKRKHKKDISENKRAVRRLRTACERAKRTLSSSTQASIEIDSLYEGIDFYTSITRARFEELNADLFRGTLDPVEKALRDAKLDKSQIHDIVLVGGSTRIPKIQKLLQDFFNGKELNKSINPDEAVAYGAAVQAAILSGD

One may read the Kd as a measure of binding affinity in units of concentration. Low values mean higher affinity, high ones lower affinity. For `CCn1c(=Cc2cccc[n+]2CC)sc(=C2Sc3ccccc3N2C)c1=O` [MKT-077, 1-ethyl-2-[[3-ethyl-5-(3-methylbenzothiazolin-2-yliden)]-4-oxothiazolidin-2-ylidenemethyl] pyridinium chloride], the Kd was less than 10 µM.
